Experimental data taken from the supplement of paper PMC10307832.

Tests used:
Experiment in all cases: relative viability (nuclei count vs DMSO), 5 days (fraction); higher = more cells survive
[1] = compound: CNC(=O)c1ccccc1Sc1ccc2c(/C=C/c3ccccn3)n[nH]c2c1 [Axitinib] + C[C@]1(O)C[C@@H](c2nc(-c3ccc4ccc(-c5ccccc5)nc4c3)c3c(N)nccn32)C1 [Linsitinib] (partner 1 µM)
Procedure, shortened: (§1)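 One day after seeding in 1536-well plates, lung cancer cell lines were dosed by pin tool. Dosing was either single-drug or a fixed anchor-drug dose plus five library-drug doses (not always all listed) in √10 steps. After 5 days, nuclei were stained in one fix-and-stain step and counted on 4× images, and relative viability is the nuclei count of treated wells over that of vehicle wells, given as the median of duplicate plates.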

[2] = compound: CC1=CC=C(C=C1)C(=O)CN2C3=C(CCCC3)SC2=N [Pifithrin_alpha] + Cc1cc(Nc2cc(N3CCN(C)CC3)nc(Sc3ccc(NC(=O)C4CC4)cc3)n2)n[nH]1 [Tozasertib] (partner 0.1 µM)
Procedure, shortened: as §1

[3] = compound: CNC(=O)c1ccccc1Sc1ccc2c(/C=C/c3ccccn3)n[nH]c2c1 [Axitinib] + CS(=O)(=O)CCNCc1ccc(-c2ccc3ncnc(Nc4ccc(OCc5cccc(F)c5)c(Cl)c4)c3c2)o1 [Lapatinib] (partner 2 µM)
Procedure, shortened: as §1

[4] = compound: CNC(=O)c1ccccc1Sc1ccc2c(/C=C/c3ccccn3)n[nH]c2c1 [Axitinib] + CCNC(=O)c1noc(-c2cc(C(C)C)c(O)cc2O)c1-c1ccc(CN2CCOCC2)cc1 [Luminespib] (partner 0.01 µM)
Procedure, shortened: as §1

Cell Line NCI-H650 has a relative viability ([1]; first compound 0.005 µM) of 0.969, a relative viability ([1]; first compound 0.01581 µM) of 0.866 and a relative viability ([1]; first compound 0.05 µM) of 0.916. It also gave a relative viability ([1]; first compound 0.1581 µM) of 0.713, a relative viability ([1]; first compound 0.5 µM) of 0.759 and a relative viability ([2]; first compound 3.162 µM) of 0.79. For the same cell line, the relative viability ([2]; first compound 10 µM) was 0.678, the relative viability ([2]; first compound 31.62 µM) was 0.548 and the relative viability ([2]; first compound 100 µM) was 0.624. The relative viability ([3]; first compound 0.005 µM) was 0.792, the relative viability ([3]; first compound 0.01581 µM) was 0.837 and the relative viability ([3]; first compound 0.05 µM) was 1.08. For the same cell line, the relative viability ([3]; first compound 0.1581 µM) was 0.919, the relative viability ([3]; first compound 0.5 µM) was 0.932 and the relative viability ([4]; first compound 0.005 µM) was 0.798. For the same cell line, the relative viability ([4]; first compound 0.01581 µM) was 0.766, the relative viability ([4]; first compound 0.05 µM) was 0.589 and the relative viability ([4]; first compound 0.1581 µM) was 0.764. The relative viability ([4]; first compound 0.5 µM) was 0.822.
